In PubChem BioAssay (NCI):
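Values below derive from 48-hour exposures of cells grown in 96-well plates, with endpoints linearly interpolated between the two concentrations bracketing the appropriate inhibition level. GI50 = concentration required for 50% inhibition of growth. Definition used: TGI = concentration required for complete inhibition of growth.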

Columns and labels:
Test in all cases: DTP human tumour cell line panel, 48 h
OVCAR-3 ovarian = test system: OVCAR-3 ovarian
NCI-H23 lung = test system: NCI-H23 lung
HCC-2998 colon = test system: HCC-2998 colon
U251 CNS = test system: U251 CNS
SNB-75 CNS = test system: SNB-75 CNS
PC-3 prostate = test system: PC-3 prostate
SK-MEL-5 melanoma = test system: SK-MEL-5 melanoma
EKVX NSCLC = test system: EKVX NSCLC
SF-295 CNS = test system: SF-295 CNS
HCT-116 colon = test system: HCT-116 colon

Structure (SMILES)	TGI (OVCAR-3 ovarian) [µM]	TGI (NCI-H23 lung) [µM]	TGI (HCC-2998 colon) [µM]	TGI (U251 CNS) [µM]	TGI (SNB-75 CNS) [µM]	TGI (PC-3 prostate) [µM]	TGI (SK-MEL-5 melanoma) [µM]	TGI (EKVX NSCLC) [µM]	TGI (SF-295 CNS) [µM]	TGI (HCT-116 colon) [µM]	GI50 (OVCAR-3 ovarian) [µM]	GI50 (NCI-H23 lung) [µM]	GI50 (HCC-2998 colon) [µM]	GI50 (U251 CNS) [µM]	GI50 (SNB-75 CNS) [µM]	GI50 (PC-3 prostate) [µM]	GI50 (SK-MEL-5 melanoma) [µM]	GI50 (EKVX NSCLC) [µM]	GI50 (SF-295 CNS) [µM]	GI50 (HCT-116 colon) [µM]
COC1CC(OC2C(C)OC(OC3C(C)OC(OC4C(O)CC(O[C@H]5CC[C@@]6(C)C(=CC[C@]7(O)[C@@H]6C[C@@H](OC(C)=O)[C@@]6(C)[C@]7(O)CC[C@@]6(O)C(C)=O)C5)OC4C)CC3OC)CC2OC)OC(C)C1O (stereo not given in full)	> 12.5	> 12.5	> 12.5	> 12.5	> 12.5	> 12.5	> 12.5	> 12.5	> 12.5	> 12.5	–	–	–	–	–	–	–	–	–	–
C=C1C(=O)O[C@H]2[C@H]3O[C@@H](C[C@@H]12)[C@@]1(C)CC[C@H](O1)[C@H](C)CCC[C@H]3C	2.37	3.18	2.57	2.82	3.15	3.01	2.72	2.84	17.4	2.49	–	–	–	–	–	–	–	–	–	–
Fc1ccc(N=C/C=C/Nc2ccc(F)cc2)cc1	31.1	48.4	19.5	20.6	28.4	22.3	22.3	25.9	24.2	18.9	–	–	–	–	–	–	–	–	–	–
CCCCCCCCCCCCc1ccc(S(=O)(=O)O)cc1.[Zn+2]	> 100	> 100	> 100	> 100	> 100	> 100	> 100	> 100	> 100	> 100	–	–	–	–	–	–	–	–	–	–
O=C(c1ccccc1)n1cc(-c2ccccc2)c2c(=O)[nH]cnc21	> 100	> 100	> 100	> 100	> 100	> 100	> 100	> 100	> 100	> 100	–	–	–	–	–	–	–	–	–	–
Nc1ccccc1.[C-]#[O+].[C-]#[O+].[C-]#[O+].[C-]#[O+].[C-]#[O+].[Cr]	> 10	> 10	> 10	> 10	> 10	> 10	3.34	> 10	> 10	> 10	3.18	3.67	6.17	9.45	4.05	5.87	1.53	9.33	> 10	2.9
CSc1c(C#N)c(N)nc2c(N=Nc3ccc(Br)cc3)c(N)nn12	6.77	14.4	26	16.8	28.8	23.5	40.2	23.9	25.3	12.5	–	–	–	–	–	–	–	–	–	–
COc1ccc(NC(=O)CC(=O)n2nc(C)c(N=Nc3cccc(C)c3)c2C)cc1	> 100	> 100	> 100	> 100	> 100	> 100	> 100	> 100	> 100	> 100	–	–	–	–	–	–	–	–	–	–
CC1=NN(C(=O)CC(=O)Nc2ccccc2Cl)C(=O)C1N=Nc1ccc(S(=O)(=O)c2ccc(N=NC3C(=O)N(C(=O)CC(=O)Nc4ccccc4Cl)N=C3C)cc2)cc1 (stereo not given)	> 100	> 100	> 100	> 100	> 100	> 100	> 100	> 100	> 100	> 100	–	–	–	–	–	–	–	–	–	–
COC(=O)C1=C(OC(=O)/C=C/c2ccccc2)C(C(=O)OC)[C@@]2(O)[C@@H](C(=O)OC)[C@H](C)C[C@@H]1[C@@H]2C(=O)OC (stereo not given in full)	54.1	48.8	48.7	45.6	73.1	> 100	87.9	65.2	79.9	88.4	–	–	–	–	–	–	–	–	–	–
Cc1cn(CCCCCCC2=NCCCN2)c(=O)[nH]c1=O	> 100	> 100	> 100	> 100	> 100	> 100	> 100	> 100	> 100	> 100	–	–	–	–	–	–	–	–	–	–
C=CC(OC(C)=O)c1ccc(OC(=O)C(C)C)c(OC)c1 (stereo not given)	12.4	47.7	29.5	7.07	13	19.3	30.1	16.6	24.7	22.5	–	–	–	–	–	–	–	–	–	–
CC12CC3OC(=O)C1COC14OC5(C2C1=O)C(O)(CCC1C4CC2OC24CC=CC(=O)C14C)C(=O)OC35C (stereo not given)	28.7	33.1	32.8	35.9	> 100	40.1	11.5	> 100	69.5	29.2	–	–	–	–	–	–	–	–	–	–
CC(=O)OC(Cc1ccc2ccccc2n1)(C(F)(F)F)C(F)(F)F	1.99	6.95	7.57	18.2	13.5	11.7	1.38	10.2	10.9	4.24	–	–	–	–	–	–	–	–	–	–
CSc1cc(-c2ccccn2)nc(-c2ccccn2)c1	5	7.25	12.9	11.7	13.6	17.9	4.07	12.3	11.5	11.7	–	–	–	–	–	–	–	–	–	–
COc1cc(O)c2c(=O)c3c(C)cccc3n(C)c2c1	> 10	> 10	> 10	> 10	> 10	> 10	> 10	> 10	> 10	> 10	–	–	–	–	–	–	–	–	–	–
COC12CCCN1c1ccn(Cc3ccccc3)c(=O)c1C2=O (stereo not given)	> 100	> 100	> 100	> 100	> 100	> 100	> 100	> 100	> 100	> 100	–	–	–	–	–	–	–	–	–	–
